According to patent US20020137929A1, “1 - (3-heterocyclylphenyl) isothiourea, -isourea, -guanidine and -amidine herbicidal agents” (Intellectual Property Department, BASF Aktiengesellschaft, priority 1998, published 2002):

Experiments:
AMBEL (Ragweed, Common) [1] = test: Preemergence herbicidal evaluation; format: in vivo, Ambrosia artemisifolia; conditions: preemergence, rated 4-5 weeks after treatment, 0-9 scale
Summary of the method: (§1)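 Greenhouse preemergence test: seed-soil mix sown on ~1 inch soil; aqueous acetone spray at equivalent of ~0.0156–0.500 kg/ha; greenhouse-held and watered; scored 0–9 visually at 4–5 weeks.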

ORYSAT (Rice, Tebonnet) = test: Postemergence herbicidal evaluation; format: in vivo, Oryza sativa, (L.) Tebonnet; conditions: postemergence
Summary of the method: (§2)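 Visual 0–9 rating versus control (stand, vigor, malformation, size, chlorosis, overall appearance), taken four to five weeks post-spray. Two-week-old seedlings received roughly 0.0156–0.500 kg/ha active in acetone/water (50/50) with 0.5% TWEEN 20 via nozzle at 40 psi.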

ECHCG (Barnyardgrass) = test: Postemergence herbicidal evaluation; format: in vivo, Echinochloa crus-galli; conditions: postemergence
Summary of the method: as §2

CYPIR (Rice Flatsedge) = test: Postemergence weed control under flooded paddy conditions; format: in vivo, Cyperus iria; conditions: postemergence weeds, rated 3 to 4 weeks after treatment
Summary of the method: (§3)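 Weeds 3 to 5 cm tall and rice seedlings at the 1.5 to 2.5 leaf stage were flooded, with water held 1.5 to 3 cm above the soil. Compounds in 50/50 v/v aqueous/acetone went into the flood water at about 0.0313 to 0.500 kg/ha. Visual 0-9 ratings versus control were made 3 to 4 weeks later.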

GALAP (Galium) = test: Preemergence herbicidal evaluation; format: in vivo, Galium aparine; conditions: preemergence, rated 4-5 weeks after treatment, 0-9 scale
Summary of the method: as §1

AMBEL (Ragweed, Common) [2] = test: Postemergence herbicidal evaluation; format: in vivo, Ambrosia artemisifolia; conditions: postemergence
Summary of the method: as §2

ABUTH (Velvetleaf) = test: Postemergence herbicidal evaluation; format: in vivo, Abutilon theophrasti; conditions: postemergence
Summary of the method: as §2

CYPSE (Flatsedge) [3] = test: Preemergence weed control under flooded paddy conditions; format: in vivo, Cyperus serotinus; conditions: rated 3-4 weeks after treatment
Summary of the method: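 Ratings on a 0-9 visual scale cover stand, vigor, malformation, size, chlorosis and overall appearance relative to a control, taken three to four weeks post-treatment. Application was into flood water over freshly sown silt loam at roughly 0.0313 to 0.500 kg/ha.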

ZEAMX (Corn, Field) = test: Postemergence herbicidal evaluation; format: in vivo, Zea mays; conditions: postemergence
Summary of the method: as §2

CASOB (Sicklepod) = test: Preemergence herbicidal evaluation; format: in vivo, Cassia obtusifolia; conditions: preemergence, rated 4-5 weeks after treatment, 0-9 scale
Summary of the method: as §1

[4] = system: CHEAL (Lambsquarters, Common); test: Preemergence herbicidal evaluation; format: in vivo, Chenopodium album; conditions: preemergence, rated 4-5 weeks after treatment, 0-9 scale
Summary of the method: as §1

[5] = system: GLXMAW (Soybean, Williams); test: Postemergence herbicidal evaluation; format: in vivo, Glycine max, (L.) Merr. cv Williams; conditions: postemergence
Summary of the method: as §2

CYPSE (Flatsedge) [6] = test: Postemergence weed control under flooded paddy conditions; format: in vivo, Cyperus serotinus; conditions: postemergence weeds, rated 3 to 4 weeks after treatment
Summary of the method: as §3

[7] = system: CHEAL (Lambsquarters, Common); test: Postemergence herbicidal evaluation; format: in vivo, Chenopodium album; conditions: postemergence
Summary of the method: as §2

`CN1C(=O)C(CC(N)=O)SC1=Nc1cc(-n2c(=O)cc(C(F)(F)F)n(C)c2=O)c(F)cc1Cl` (stereo not shown) [Compound 92, 2-{{2-Chloro-5-[3,6-dihydro-3-methyl-2,6-dioxo-4-(trifluoromethyl)-1(2H)-pyrimidinyl]-4-fluorophenyl}imino}-3-methyl-4-oxo-5-thiazolidineacetamide] showed an AMBEL rating (AMBEL (Ragweed, Common) [1]; 0.0156 kg/ha) of 0.0, an AMBEL rating (AMBEL (Ragweed, Common) [1]; 0.0313 kg/ha) of 0.0 and an AMBEL rating (AMBEL (Ragweed, Common) [1]; 0.0625 kg/ha) of 0.0. It also gave an AMBEL rating (AMBEL (Ragweed, Common) [1]; 0.1250 kg/ha) of 5.0, an AMBEL rating (AMBEL (Ragweed, Common) [1]; 0.2500 kg/ha) of 9.0 and an ORYSAT herbicidal rating (ORYSAT (Rice, Tebonnet); rate 0.0158 kg/ha) of 1.5. For the same compound, the ORYSAT herbicidal rating (ORYSAT (Rice, Tebonnet); rate 0.0315 kg/ha) was 2.0, the ORYSAT herbicidal rating (ORYSAT (Rice, Tebonnet); rate 0.0630 kg/ha) was 3.5 and the ECHCG herbicidal rating (ECHCG (Barnyardgrass); rate 0.0158 kg/ha) was 0.0. For the same compound, the ECHCG herbicidal rating (ECHCG (Barnyardgrass); rate 0.0315 kg/ha) was 1.0, the ECHCG herbicidal rating (ECHCG (Barnyardgrass); rate 0.0630 kg/ha) was 1.0 and the “Herbicidal rating CYPIR” value (CYPIR (Rice Flatsedge); Rate 0.0313 kg/ha) was 3.0. The “Herbicidal rating CYPIR” value (CYPIR (Rice Flatsedge); Rate 0.0625 kg/ha) was 3.0, the “Herbicidal rating CYPIR” value (CYPIR (Rice Flatsedge); Rate 0.1250 kg/ha) was 5.0 and the “Herbicidal rating CYPIR” value (CYPIR (Rice Flatsedge); Rate 0.2500 kg/ha) was 7.0. For the same compound, the GALAP rating (GALAP (Galium); 0.0156 kg/ha) was 0.0, the GALAP rating (GALAP (Galium); 0.0313 kg/ha) was 0.0 and the GALAP rating (GALAP (Galium); 0.0625 kg/ha) was 0.0. For the same compound, the GALAP rating (GALAP (Galium); 0.1250 kg/ha) was 9.0, the GALAP rating (GALAP (Galium); 0.2500 kg/ha) was 9.0 and the AMBEL herbicidal rating (AMBEL (Ragweed, Common) [2]; rate 0.0158 kg/ha) was 0.0. For the same compound, the AMBEL herbicidal rating (AMBEL (Ragweed, Common) [2]; rate 0.0315 kg/ha) was 9.0, the AMBEL herbicidal rating (AMBEL (Ragweed, Common) [2]; rate 0.0630 kg/ha) was 9.0 and the ABUTH herbicidal rating (ABUTH (Velvetleaf); rate 0.0158 kg/ha) was 9.0. The ABUTH herbicidal rating (ABUTH (Velvetleaf); rate 0.0315 kg/ha) was 9.0, the ABUTH herbicidal rating (ABUTH (Velvetleaf); rate 0.0630 kg/ha) was 9.0 and the “CYPSE herbicidal effect rating” value (CYPSE (Flatsedge) [3]; 0.0313 kg/ha) was 9.0. The “CYPSE herbicidal effect rating” value (CYPSE (Flatsedge) [3]; 0.0625 kg/ha) was 9.0, the “CYPSE herbicidal effect rating” value (CYPSE (Flatsedge) [3]; 0.1250 kg/ha) was 9.0 and the “CYPSE herbicidal effect rating” value (CYPSE (Flatsedge) [3]; 0.2500 kg/ha) was 9.0. For the same compound, the ZEAMX herbicidal rating (ZEAMX (Corn, Field); rate 0.0158 kg/ha) was 6.0, the ZEAMX herbicidal rating (ZEAMX (Corn, Field); rate 0.0315 kg/ha) was 7.5 and the ZEAMX herbicidal rating (ZEAMX (Corn, Field); rate 0.0630 kg/ha) was 8.0. For the same compound, the CASOB rating (CASOB (Sicklepod); 0.0156 kg/ha) was 0.0, the CASOB rating (CASOB (Sicklepod); 0.0313 kg/ha) was 0.0 and the CASOB rating (CASOB (Sicklepod); 0.0625 kg/ha) was 0.0. The CASOB rating (CASOB (Sicklepod); 0.2500 kg/ha) was 3.0, the CHEAL rating ([4]; 0.0156 kg/ha) was 9.0 and the CHEAL rating ([4]; 0.0313 kg/ha) was 9.0. It also gave a CHEAL rating ([4]; 0.0625 kg/ha) of 9.0, a CHEAL rating ([4]; 0.1250 kg/ha) of 9.0 and a CHEAL rating ([4]; 0.2500 kg/ha) of 9.0. For the same compound, the GLXMAW herbicidal rating ([5]; rate 0.0158 kg/ha) was 7.5, the GLXMAW herbicidal rating ([5]; rate 0.0315 kg/ha) was 9.0 and the GLXMAW herbicidal rating ([5]; rate 0.0630 kg/ha) was 9.0. For the same compound, the “Herbicidal rating CYPSE” value (CYPSE (Flatsedge) [6]; Rate 0.0313 kg/ha) was 9.0, the “Herbicidal rating CYPSE” value (CYPSE (Flatsedge) [6]; Rate 0.0625 kg/ha) was 9.0 and the “Herbicidal rating CYPSE” value (CYPSE (Flatsedge) [6]; Rate 0.1250 kg/ha) was 9.0. For the same compound, the “Herbicidal rating CYPSE” value (CYPSE (Flatsedge) [6]; Rate 0.2500 kg/ha) was 9.0, the CHEAL herbicidal rating ([7]; rate 0.0158 kg/ha) was 2.0 and the CHEAL herbicidal rating ([7]; rate 0.0315 kg/ha) was 9.0. For the same compound, the CHEAL herbicidal rating ([7]; rate 0.0630 kg/ha) was 9.0.
